Patent publication US20090186024A1, “Gene Expression Signatures for Oncogenic Pathway Deregulation” (priority 2005, published 2009)

System: breast cancer cell lines
Test: Cell proliferation assays (growth inhibition, standard MTT/MTS colorimetric assay)
Format: cell-based
Settings: 96 hrs, versus DMSO controls, FIG. 4B
Method: FIGS. 4A-4B show pathway deregulation in breast cancer cell lines predicts drug sensitivity. A. Pathway predictions in breast cancer cell lines. The results plotted show images of the predicted probability of pathway activation (red indicates high probability, blue indicates low probability). B. Sensitivity to pathway-specific drugs. Left panel. Cells were treated with 3.75 μM of farnesyltransferase inhibitor (L-744,832) for 96 hrs. Proliferation was assayed using a standard MTS tetrazolium colorimetric method. The degree of proliferation inhibition was plotted as a function of probability of Ras pathway activation as determined in panel A. Middle panel. Same as in left panel but using farnesylthiosalicylic acid (200 μM). Right panel. Same as in left panel but using the Src pathway inhibitor SU6656 (1.5 μM), and with the degree of proliferation inhibition plotted as a function of Src pathway activation. […]
Cell and RNA preparation. […] Expression of oncogenes and their secondary targets was determined by a standard Western Blotting protocol using a TGH lysis buffer (1% Triton X-100, 10% glycerol, 50 mM NaCl, 50 mM Hepes, pH 7.3, 5 mM EDTA, 1 mM sodium orthovanadate, 1 mM PMSF, 10 μg/ml leupeptine, 10 μg/ml aprotinin). […] Protein quantitation of lysates was determined by BCA [Pierce] prior to electrophoresis with a 10-12% SDS-PAGE gel. Activation status of kinase pathways for the breast cancer cell lines was determined for growing cells (at 75% confluency) 48 hours after plating using the following methods. Ras activation is measured using a Ras Activation Assay Kit (Upstate Biotechnology) that consists of a GST fusion-protein corresponding to the human Ras Binding Domain (RBD, residues 1-149) of Raf-1. […] Western Blotting for immunoprecipitated H/K-Ras is detected using an H/K-Ras specific antibody (Santa Cruz Biotechnology, #sc-520 and sc-F234). c-Src activation was determined by Western Blotting using a phospho-Tyr416 Src antibody (Cell Signaling, #2101). […]

## CN(C)S(=O)(=O)c1ccc2c(c1)/C(=C/c1cc3c([nH]1)CCCC3)C(=O)N2 [SU6656]
  relation between probability of Src pathway deregulation (gene expression prediction) and extent of cell proliferation inhibition by the drug: close concordance and correlation

## CC[C@H](C)[C@@H](CO[C@@H](Cc1ccccc1)C(=O)N[C@@H](CCS(C)(=O)=O)C(=O)OC(C)C)NC[C@@H](N)CS [L-744,832]
  relation between probability of Ras pathway deregulation (gene expression prediction) and extent of cell proliferation inhibition by the drug: close concordance and correlation

## CC(C)=CCCC(C)=CCCC(C)=CCSc1ccccc1C(=O)O [FTS, farnesylthiosalicylic acid]
  relation between probability of Ras pathway deregulation (gene expression prediction) and extent of cell proliferation inhibition by the drug: close concordance and correlation
